Laboratory results as given in patent publication US7671035B2, “Epidermal growth factor receptor antisense oligonucleotides” (Idera Pharmaceuticals, Inc., priority 2001, dated 2010).
In the oligonucleotide strings, read from the 5' end, every base follows the letter of its sugar. An asterisk marks phosphorothioate; unmarked linkages are phosphodiester. Other units and linkages are bracketed, terminal groups are in braces. A string of capitals states the bases alone. d = 2'-deoxy (DNA)

Experiments:
[1] = system: human GEO colon cancer cells; assay: Soft agar (anchorage-independent) colony growth of GEO cells; type: cell-based; details: read-out: IC50, inhibition of GEO cell soft agar growth
Description: Antisense oligonucleotides having SEQ ID NOS: 1-10 were designed and evaluated for the ability to inhibit the anchorage-independent growth of human GEO colon cancer cells. Human cancer cells useful for this study are GEO cells.
The IC50 determined by treatment with these antisense oligonucleotides varied between 0.1 and 0.7 μM. Based on the nucleotide sequence and on the growth inhibitory activity, two sequences (corresponding to AS14 (SEQ 10 NO: 14) and AS22 (SEQ ID NO: 22)) were modified in their backbone structure as hybrid DNA-RNA 20-mer oligonucleotides (AS23 (SEQ ID NO: 23)) and AS24 (SEQ ID NO: 24)) and further characterized for their biological characteristics. GEO cells were grown as colonies in soft agar and treated with different concentrations of the indicated antisense oligonucleotides. IC50 values were obtained from three different experiments, each performed in triplicate.
GEO human colon cancer, OVCAR-3 human ovarian cancer, and ZR-75-1 human breast cancer cell lines were obtained from the American Type Culture Collection, Manassas, Va. (OVCAR, ATCC No. HTB-161; ZR-75-1, ATCC No. CRL-1500). […]
Cells (10^4 cells/well) were suspended in 0.5 ml of 0.3% Difco Noble agar (Difco, Detroit, Mich.) supplemented with complete culture medium. […] After 10 to 14 days, cells were stained with nitro blue tetrazolium (Sigma, St. Louis, Mo.) and colonies larger than 0.05 mm were counted.

GEO cells = assay: Soft agar growth of GEO cells, antisense MBO in combination with cytotoxic drugs; type: cell-based, human; details: for growth inhibition: soft agar; for growth inhibitory effect in combination with cytotoxic drugs: GEO cells on soft agar, all doses, with each of cisplatin, doxorubicin, paclitaxel, topotecan (FIGS. 5, 6)
Description: FIG. 5A is a graphic representation showing the growth inhibitory effects of AS23 (0.01 μM, […], 0.1 μM) in combination with cisplatin on the growth of CEO cells in soft agar. Cells were treated with the indicated concentrations of cytotoxic drug on day 1, followed by the indicated concentrations of EGFR-AS oligonucleotide on each day from day 2 to day 4. Colonies were counted after 10 to 14 days. Data represent the average (±standard deviation) of three different experiments, each performed in triplicate.
The invention also provides a method of potentiating the growth inhibitory effect of a cytotoxin on a cancer cell. In this method, the cell is contacted with an oligonucleotide of the invention, as well as the cytotoxin. For example, the growth inhibitory effects of AS23 and AS24 on cancer cells were examined in combination with four different cytotoxins: cisplatin, doxorubicin, paclitaxel, and topotecan. […] When lower doses of these agents were used, the antiproliferative effect was clearly cooperative. […] The cooperativity quotient of this treatment, defined as the ratio between the actual growth inhibition obtained with cisplatin followed by AS23 MBO and the sum of the growth inhibition achieved by each agent, was approximately 1.8.
Cells (10^4 cells/well) were suspended in 0.5 ml of 0.3% Difco Noble agar (Difco, Detroit, Mich.) supplemented with complete culture medium. This suspension was layered over 0.5 ml of 0.8% agar-medium base layer in 24 multiwell cluster dishes (Becton Dickinson, Lincoln Park, N.J.) and treated on days 1, 2 and 3 with different concentrations of the various EGFR-AS oligonucleotides alone and/or in combination on day 1 with the indicated concentrations of cytotoxic drugs. After 10 to 14 days, cells were stained with nitro blue tetrazolium (Sigma, St. Louis, Mo.) and colonies larger than 0.05 mm were counted.

EGFR = assay: Western blot of EGFR expression in GEO cells; type: cell-based, human; details: GEO cells treated three days at 0.1 μM or 0.5 μM, compared to scramble oligonucleotide-treated cells (FIG. 1B)
Description: FIG. 1A is a representation of a Western blot showing EGFR expression in GEO cancer cells following treatment with EGFR antisense oligonucleotides. GEO cells were treated for three days with 0.5 μM of the indicated oligonucleotides (AS 5, 6, 7, 8, 9, 10), 0.5 μM, or with 0.5 μM scramble sequence oligonucleotides. Equal amounts (50 μg/lane) of protein extracts were resolved by a 7.5% SDS-PAGE and probed with an anti-human EGFR monoclonal antibody. Immunoreactive proteins were visualized by enhanced chemiluminescence.
FIG. 1B is a representation of a Western blot showing EGFR expression in CEO cells following treatment with EGFR antisense oligonucleotides. GEO cells were treated for three days with AS23 and AS24 oligonucleotides (0.1 or 0.5 μM), respectively; or with 0.5 μM of scramble sequence oligonucleotides. Equal amounts (50 μg/lane) of protein extracts were resolved by a 7.5% SDS-PAGE and probed with an anti-human EGFR monoclonal antibody. Immunoreactive proteins were visualized by enhanced chemiluminescence. […]

p27 [2] = assay: Western blot of p27 expression in ZR-75-1 cells; type: cell-based, human; details: three days, 0.1 and 0.5 μM (FIG. 3B)
Description: (§1) Equal amounts (50 μg/lane) of protein extracts were resolved by a 12% SDS-PAGE and probed with an anti-human p27 MAb. Immunoreactive proteins were visualized by enhanced chemiluminescence.
(§2) The ability of EGFR antisense treatment to induce p27 was therefore examined.
(§3) 50 μg total cell lysates from GEO cells, which were treated each day for three days with the indicated concentrations of antisense oligonucleotides, were fractionated through 7.5% or 12% sodium dodecyl sulfate-polyacrylamide gels, transferred to nitrocellulose filters and incubated with an anti-human EGFR mouse MAb or with an anti-human p27 mouse MAb (both antibodies were purchased from Transduction Laboratories, Lexington, Ky.), respectively, followed by horseradish-peroxidase antiserum (Bio-Rad Laboratories, Milano, Italy). Immunoreactive proteins were visualized by enhanced chemiluminescence (Amersham International, England).

p27 [3] = assay: Western blot of p27 expression in GEO cells; type: cell-based, human; details: three days, 0.1 and 0.5 μM (FIG. 3A)
Description: as §1, §2, §3

Molecule | IC50 [1] [µM] | growth inhibitory effect in combination with cytotoxic drugs (GEO cells) | EGFR protein expression (Western blot) (EGFR) | also measured
ACACTGCCTGAGAGTTGCCC (antisense dA*dC*dA*dC*dT*dG*dC*dC*dT*dG*dA*dG*dA*dG*dT*dT*dG*dC*dC*dC) [AS1] | ~3.5 |  |  | 
N.N.[Cl][Pt][Cl] [cisplatin, CIS-diamminedichloroplatinum, reference compound] |  |  |  | growth inhibition (GEO cells; GEO cells, 0.25 μg/ml cisplatin alone): approximately 20%
UGCTAGGTTTCCTCCCUUUC (phosphorothioate linkages, 2'-O-methyl ribonucleosides, further chemistry not given here) [AS24] |  | supra-additive growth inhibitory effect | almost complete inhibition | 
UAUGATCTGTCACAGCUUGA (phosphorothioate linkages, 2'-O-methyl ribonucleosides, further chemistry not given here) [AS23] |  | supra-additive growth inhibitory effect | almost complete inhibition | growth inhibition (GEO cells; GEO cells, 0.05 μM AS23 MBO alone): approximately 20%; inhibition of colony formation in soft agar (GEO cells; GEO cells, combined treatment 0.25 μg/ml cisplatin followed by 0.05 μM AS23 MBO (FIG. 5A)): 70%; cooperativity quotient (GEO cells; ratio of growth inhibition with cisplatin followed by AS23 MBO to the sum of growth inhibition by each agent, GEO cells): approximately 1.8; p27 expression (Western blot) (p27 [2]): dose-dependent increase in p27 expression; p27 expression (Western blot) (p27 [3]): dose-dependent increase in p27 expression
CTCTTCTTGACAGTCTGATG (antisense dC*dT*dC*dT*dT*dC*dT*dT*dG*dA*dC*dA*dG*dT*dC*dT*dG*dA*dT*dG) [AS10] | ~0.5 |  |  | 
